Columns and labels:
Type in all cases: cell-based, human
[1] = test system: HepaRG cells; test: Urea production of HepaRG monolayer cultures
Experimental: For testing, the cells are seeded in 6-well and 24-well culture plates (Corning) in HepaRG media with different FBS batches or other differences in medium composition. After a 2 weeks proliferation phase, 2% of DMSO will be added to half of the cultures. After another 2 weeks of culturing, the confluence and morphology of the cultures will be assessed microscopically. Furthermore the +DMSO and −DMSO cell cultures in the 24-well plates will be tested for biochemical activity, i.e. urea production, ammonia elimination and protein content. […] Medium samples are taken after 1 hr from the culture wells, as a reference, and after 24 hours. At the end of the test period the cells are washed three times using PBS and stored at −20° C. for protein determination. From the changes in concentration at t=1 hr and 24 hr of urea and ammonia an activity per hour and per mg protein/well is calculated.
(§1) Urea: Urea concentrations of test medium samples are determined using the blood urea nitrogen test of Sigma Chemical Co according to the instructions of the manufacturer.
(§2) The HepaRG cells are cultured as indicated above in 24 well in presence or absence of 1 mM CG during the last 5 days. Next the cells are tested as indicated above in presence or absence of CG during 24 hours. To determine the conversion of ammonia into urea, the ^15N urea enrichment (single and double labeled) is measured in the test samples using mass-spectrometry. Similarly, HepG2 and cBAL111 cells were tested for their response to CG.

[2] = test system: HepaRG cells; test: 15N urea enrichment (conversion of ammonia into urea) in HepaRG monolayer cultures; conditions: for 15N urea enrichment: 1 mM CG in preincubation and in testmedium (++)
Experimental: For testing, the cells are seeded in 6-well and 24-well culture plates (Corning) in HepaRG media with different FBS batches or other differences in medium composition. After a 2 weeks proliferation phase, 2% of DMSO will be added to half of the cultures. After another 2 weeks of culturing, the confluence and morphology of the cultures will be assessed microscopically. Furthermore the +DMSO and −DMSO cell cultures in the 24-well plates will be tested for biochemical activity, i.e. urea production, ammonia elimination and protein content. The cultured cells are washed twice using phosphate buffered saline (PBS, NBPI International) and then incubated with test medium consisting of HepaRG culture medium supplemented with 1.5 mM ^15NH4Cl (Sigma), 2.75 mM D-galactose (Sigma), 2 mM ornithine hydrochloride (Sigma) and 2 mM L-lactate (Sigma). Medium samples are taken after 1 hr from the culture wells, as a reference, and after 24 hours. At the end of the test period the cells are washed three times using PBS and stored at −20° C. for protein determination. From the changes in concentration at t=1 hr and 24 hr of urea and ammonia an activity per hour and per mg protein/well is calculated. Quality of the cell-loaded bioreactors, measured by hepatocyte function at the start of the treatment, will be compared with values of primary hepatocytes that have been tested extensively in vitro in the past.
^15N Urea: Single and Double labelled urea is measured in the test medium samples using mass-spectrometry.
as §2

[3] = test system: HepaRG cells; test: RT-PCR mRNA levels of hepatic genes in HepaRG monolayer cultures; conditions: CG treatment
Experimental: The HepaRG cells cultured in the 6-well plates are lysed and the RNA is isolated using the RNeasy kit (Qiagen). Next, real-time reverse transcriptase-polymerase chain reactions (RT-PCR) are performed to quantify mRNA levels of hepatic genes as well as 18S ribosomal RNA levels by RT-PCR.
First-strand cDNA is generated using a combination of 40 pmol of gene-specific RT-primers (see Table 1) and 134 units of Superscript III (Invitrogen) and 1 μg RNA in a total volume of 25 μl at 50° C. for one hour followed by a 15 min incubation at 70° C. The resulting gene-specific RT reaction mixtures are column purified using Qiaquick PCR Purification Kit (Qiagen).
Real-time PCR is performed using 1 μl of cDNA and LightCycler FastStart DNA Master SYBR® Green 1 reagent (Roche). PCR primers are depicted in the Table 3. The thermal cycling profile of the touchdown PCR is as follows: 94° C. for 10 min, followed by 40 cycles of 94° C. for 1 s, primer annealing at 68° C. for 7 s with a 0.5° C./cycle decrease until 63° C., and extension for 40 s at 72° C. PCR specificity is verified by melting curve analysis and agarose gel electrophoresis. The mRNA quantification is carried out by using the LinRegPCR programme (Ramakers et al.^17). For each sample the mRNA starting level is normalised for the 18S rRNA starting level. To correct for variations between RT-PCR runs, the mRNA starting levels of liver specific genes of NKNT-3 cells are additionally standardized for average mRNA starting levels of two liver samples that are simultaneously subjected to RT-PCR.

[4] = test system: HepG2 cells; test: Urea production of HepG2 cells in monolayer, response to CG
Experimental: as §1, §2

[5] = test system: cBAL111 cells; test: Urea production of cBAL111 cells in monolayer, response to CG
Experimental: as §1, §2

[6] = 1 mM CG in preincubation and in testmedium (++)
[7] = 1 mM CG only during preincubation (+−)

NC(=O)N[C@@H](CCC(=O)O)C(=O)O [CG, carbamoyl glutamate]
instantaneous effect of CG on urea production [1]: negligible | Urea production ([1]; HepaRG + DMSO, 1 mM CG in preincubation and in testmedium (++)): 13.7 ± 4.4 nmol/h/mg protein | Urea production ([1]; HepaRG + DMSO, 1 mM CG only during preincubation (+−)): 11.0 ± 5.3 nmol/h/mg protein | Urea production ([1]; HepaRG + DMSO, 1 mM CG only during test (−+)): 4.9 ± 4.2 nmol/h/mg protein | Urea production ([1]; HepaRG − DMSO, 1 mM CG in preincubation and in testmedium (++)): 9.5 ± 4.2 nmol/h/mg protein | Urea production ([1]; HepaRG − DMSO, 1 mM CG only during preincubation (+−)): 9.6 ± 3.3 nmol/h/mg protein | Urea production ([1]; HepaRG − DMSO, 1 mM CG only during test (−+)): 5.9 ± 2.4 nmol/h/mg protein | increase of urea production by CG treatment ([1]; all cell lines (HepG2, cBAL111, HepaRG), 1 mM CG): more than two-fold | time increased urea production is maintained upon withdrawal of the CG ([1]; cells exposed to carbamoyl glutamate for at least 5 days): at least 24 hrs | 15N urea enrichment ([2]; HepaRG + DMSO): 7.8 ± 2.4 % of total urea produced | 15N urea enrichment ([2]; HepaRG − DMSO): 24.4 ± 4.1 % of total urea produced | increase of % of urea of the total urea produced from ammonia ([2]; HepaRG −DMSO cells, CG treatment): four-fold | effect on other hepatic functions and the gene expression profiles [3]: No effect | Urea production [4, 6]: 2.4 ± 1.6 nmol/h/mg protein | Urea production [4, 7]: 2.5 ± 1.4 nmol/h/mg protein | Urea production ([4]; 1 mM CG only during test (−+)): 1.8 ± 1.1 nmol/h/mg protein | Urea production [5, 6]: 9.4 ± 8.4 nmol/h/mg protein | Urea production [5, 7]: 10.8 ± 6.2 nmol/h/mg protein | Urea production ([5]; 1 mM CG only during test (−+)): 8.3 ± 8.3 nmol/h/mg protein

— patent publication US8921108B2, “Differentiated human liver cell cultures and their use in bioartificial liver systems” (Academisch Ziekenhuis Bij de Universiteit van Amsterdam, priority 2009, dated 2014)
